Data: ChEMBL document CHEMBL1208707, “T-type calcium channel blockers: spiro-piperidine azetidines and azetidinones-optimization, design and synthesis” (Bioorg Med Chem Lett, 2010)
Values belong to the molecule of their own block, whether it stands above or below them. Active and inactive are the calls of the source. The calls are words filed in the database; no cut-off is given here.

What was measured:
Rattus norvegicus [1] = experiment: In vivo inhibition of TRPV1 activation in SNL rat at 100 mg/kg, po; type: functional, organism-based; set-up: dose 100 mg/kg
[2] = molecular target: Transient receptor potential cation channel subfamily V member 1 (Homo sapiens) (UniProt Q8NER1); experiment: Inhibition of TRPV1 expressed in HEK293 assessed as capsaicin activation cells at 3.3 ug/mL by FLIPR assay; type: cell-based
Transient receptor potential cation channel subfamily V member 1 (Homo sapiens), sequence (Q8NER1 whole entry): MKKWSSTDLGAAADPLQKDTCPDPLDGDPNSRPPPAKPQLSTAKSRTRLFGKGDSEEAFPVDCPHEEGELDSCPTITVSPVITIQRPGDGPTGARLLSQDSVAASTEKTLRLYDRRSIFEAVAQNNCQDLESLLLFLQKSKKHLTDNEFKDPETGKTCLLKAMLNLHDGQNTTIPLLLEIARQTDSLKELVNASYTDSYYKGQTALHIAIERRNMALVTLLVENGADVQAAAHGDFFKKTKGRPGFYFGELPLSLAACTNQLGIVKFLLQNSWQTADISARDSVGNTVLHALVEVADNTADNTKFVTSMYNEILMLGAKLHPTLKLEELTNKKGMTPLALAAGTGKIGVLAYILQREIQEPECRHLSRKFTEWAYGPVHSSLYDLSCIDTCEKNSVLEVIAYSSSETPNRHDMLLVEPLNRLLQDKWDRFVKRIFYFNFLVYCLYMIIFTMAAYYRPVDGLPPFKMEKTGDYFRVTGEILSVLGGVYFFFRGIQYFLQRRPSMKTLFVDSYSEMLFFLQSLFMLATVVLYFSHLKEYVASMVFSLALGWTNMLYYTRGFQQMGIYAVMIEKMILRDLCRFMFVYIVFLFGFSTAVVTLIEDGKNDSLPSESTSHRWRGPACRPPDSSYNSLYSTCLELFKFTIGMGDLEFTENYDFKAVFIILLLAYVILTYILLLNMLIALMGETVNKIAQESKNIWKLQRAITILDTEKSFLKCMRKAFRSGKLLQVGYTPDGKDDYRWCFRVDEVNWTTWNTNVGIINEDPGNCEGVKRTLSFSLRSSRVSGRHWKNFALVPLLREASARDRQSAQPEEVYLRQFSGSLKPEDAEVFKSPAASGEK

Rattus norvegicus [3] = experiment: In vivo inhibition of TRPV1 activation in SNL rat at 30 and 60 mg/kg, po; type: functional, organism-based; set-up: dose 60 mg/kg
Rattus norvegicus [4] = experiment: In vivo inhibition of TRPV1 activation in SNL rat at 30 mg/kg, po; type: functional, organism-based; set-up: dose 30 mg/kg
Rattus norvegicus [5] = experiment: In vivo inhibition of TRPV1 activation in SNL rat at 10 mg/kg, po; type: functional, organism-based; set-up: dose 10 mg/kg
Rattus norvegicus [6] = experiment: In vivo inhibition of TRPV1 activation in SNL rat at 50 mg/kg, po; type: functional, organism-based; set-up: dose 50 mg/kg
[7] = molecular target: T1, Voltage-dependent T-type calcium channel subunit alpha-1H (Homo sapiens, UniProt O95180); experiment: Inhibition of human CaV3.2 expressed in HEK293 cells at -100 mV membrane potential by whole cell path clamp method; type: cell-based
T1 sequence (O95180 whole entry): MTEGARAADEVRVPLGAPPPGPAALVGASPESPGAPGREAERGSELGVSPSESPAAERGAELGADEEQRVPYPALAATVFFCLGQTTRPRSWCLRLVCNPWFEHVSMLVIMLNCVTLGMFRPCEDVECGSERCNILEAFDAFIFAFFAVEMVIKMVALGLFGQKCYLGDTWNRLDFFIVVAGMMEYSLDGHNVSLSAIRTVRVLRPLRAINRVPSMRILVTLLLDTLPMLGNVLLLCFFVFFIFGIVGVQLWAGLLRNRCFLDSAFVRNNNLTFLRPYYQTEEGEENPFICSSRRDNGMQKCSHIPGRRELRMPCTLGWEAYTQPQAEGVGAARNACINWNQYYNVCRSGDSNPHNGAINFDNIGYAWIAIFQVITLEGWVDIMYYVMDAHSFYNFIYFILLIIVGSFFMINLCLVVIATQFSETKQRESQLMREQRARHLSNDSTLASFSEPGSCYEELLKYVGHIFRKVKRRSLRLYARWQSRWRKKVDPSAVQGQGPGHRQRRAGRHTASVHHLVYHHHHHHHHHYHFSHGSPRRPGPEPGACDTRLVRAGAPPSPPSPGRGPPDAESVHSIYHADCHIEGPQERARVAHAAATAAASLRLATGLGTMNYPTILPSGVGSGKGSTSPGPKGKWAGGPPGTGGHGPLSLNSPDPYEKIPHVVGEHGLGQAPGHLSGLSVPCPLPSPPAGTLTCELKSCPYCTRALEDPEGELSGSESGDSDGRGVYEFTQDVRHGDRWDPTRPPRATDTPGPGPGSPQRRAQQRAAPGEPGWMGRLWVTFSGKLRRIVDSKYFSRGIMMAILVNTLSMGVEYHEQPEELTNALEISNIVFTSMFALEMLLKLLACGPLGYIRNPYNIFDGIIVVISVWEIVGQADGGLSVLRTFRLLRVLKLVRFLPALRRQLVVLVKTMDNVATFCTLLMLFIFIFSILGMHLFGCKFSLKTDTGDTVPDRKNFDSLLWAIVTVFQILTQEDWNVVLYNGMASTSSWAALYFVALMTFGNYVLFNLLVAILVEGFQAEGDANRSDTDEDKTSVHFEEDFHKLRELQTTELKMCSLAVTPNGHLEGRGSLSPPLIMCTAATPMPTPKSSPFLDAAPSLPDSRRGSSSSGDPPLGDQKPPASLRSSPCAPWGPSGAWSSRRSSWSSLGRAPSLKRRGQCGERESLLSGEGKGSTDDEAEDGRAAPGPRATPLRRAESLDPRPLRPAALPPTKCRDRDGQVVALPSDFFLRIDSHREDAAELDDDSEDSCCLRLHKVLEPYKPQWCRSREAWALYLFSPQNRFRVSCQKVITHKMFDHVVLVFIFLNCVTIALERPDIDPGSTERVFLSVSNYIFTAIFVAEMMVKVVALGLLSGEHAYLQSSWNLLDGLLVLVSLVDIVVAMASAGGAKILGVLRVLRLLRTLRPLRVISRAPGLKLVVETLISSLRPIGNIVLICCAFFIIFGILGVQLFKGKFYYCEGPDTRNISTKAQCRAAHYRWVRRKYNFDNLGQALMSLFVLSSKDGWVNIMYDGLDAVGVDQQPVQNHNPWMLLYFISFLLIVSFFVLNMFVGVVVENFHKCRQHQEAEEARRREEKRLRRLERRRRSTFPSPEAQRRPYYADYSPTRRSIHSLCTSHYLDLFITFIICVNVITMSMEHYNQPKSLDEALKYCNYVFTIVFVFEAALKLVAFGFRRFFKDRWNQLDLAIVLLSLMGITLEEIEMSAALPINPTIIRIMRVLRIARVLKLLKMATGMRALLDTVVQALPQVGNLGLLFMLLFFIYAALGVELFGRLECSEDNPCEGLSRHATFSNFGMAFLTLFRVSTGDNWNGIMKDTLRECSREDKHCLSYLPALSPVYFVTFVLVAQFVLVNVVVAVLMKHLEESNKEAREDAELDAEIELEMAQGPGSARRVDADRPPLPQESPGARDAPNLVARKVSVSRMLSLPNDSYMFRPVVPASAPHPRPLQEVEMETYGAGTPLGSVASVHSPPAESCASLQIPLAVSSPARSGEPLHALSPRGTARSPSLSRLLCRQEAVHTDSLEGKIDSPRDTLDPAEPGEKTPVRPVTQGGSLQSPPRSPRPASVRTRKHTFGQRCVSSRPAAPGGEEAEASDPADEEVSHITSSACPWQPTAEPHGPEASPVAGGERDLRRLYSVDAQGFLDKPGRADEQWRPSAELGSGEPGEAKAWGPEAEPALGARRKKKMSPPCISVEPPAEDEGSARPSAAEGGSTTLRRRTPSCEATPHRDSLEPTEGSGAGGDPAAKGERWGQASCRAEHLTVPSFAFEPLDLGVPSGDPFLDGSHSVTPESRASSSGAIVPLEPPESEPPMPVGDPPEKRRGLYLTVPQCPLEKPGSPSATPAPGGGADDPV

[8] = Protein binding in rat plasma; type: ADME, cell-free; conditions: read-out: PPB (converted)
[9] = molecular target: T1, Voltage-dependent T-type calcium channel subunit alpha-1H; experiment: Inhibition of human CaV3.2 expressed in HEK293 cells at -100 mV membrane potential by Ionworks HT assay; type: cell-based
Rattus norvegicus [10] = experiment: Plasma concentration in SNL rat at 10 mg/kg, po; type: ADME, organism-based; set-up: dose 10 mg/kg, route oral; conditions: in vivo

Compound: O=C(Nc1cc(F)cc(F)c1)N1CCC2(CC1)C(=O)N(c1ccc(F)c(Cl)c1)C2c1ccccn1 (stereo in doubt; 39a)
- inhibition (Rattus norvegicus [1]): inactive

- inhibition [2]: 36%
Compound: O=C(Nc1cc(F)cc(F)c1)N1CCC2(CC1)C(=O)N(c1cccc(Cl)c1)C2c1ccccn1 (stereo in doubt; 44b)
- inhibition (Rattus norvegicus [3]): inactive
- inhibition (Rattus norvegicus [4]): inactive

Compound: O=C(Nc1cc(F)cc(F)c1)N1CCC2(CC1)C(=O)N(c1ccc(F)c(Cl)c1)C2c1ccccn1 (stereo in doubt; 39b)
- inhibition (Rattus norvegicus [5]): inactive
- inhibition (Rattus norvegicus [6]): inactive

- IC50 [7]: 0.283 µM
- fraction unbound [8]: 0.005
- IC50 [9]: 0.176 µM
- concentration (Rattus norvegicus [10]): 2100 nM
Compound: O=C(Nc1cccc(C(F)(F)F)c1)N1CCC2(CC1)C(=O)N(c1ccc(F)c(F)c1)C2c1ccccn1 (stereo in doubt; 411b)
